Values quoted from earlier work, collected in US9827197B2, “Diclofenac formulations and methods of use” (APR Applied Pharma Research s.a., priority 2005, dated 2017).

Assays:
[1] = water at 25 degrees Celsius
[2] = commercially available sugar coated tablets

Structure (SMILES) | solubility in water [1] [g/100 ml] | terminal half life [2]
OC[C@@H](O)[C@@H](O)[C@H](O)[C@H](O)CO [mannitol] | 22 | 
O=C(O)Cc1ccccc1Nc1c(Cl)cccc1Cl [Diclofenac potassium] |  | about 1.9 hours
